Results reported in patent publication US9005670B2, “Use of histone acetyltransferase inhibitors as novel anti-cancer therapies” (The Johns Hopkins University, priority 2010, dated 2015).

Experiments:
[1] = molecular target: T1, MOZ histone acetyltransferase (Homo sapiens, UniProt Q92794); assay: MOZ direct radioactive HAT assay; assay type: biochemical; settings: 10 μM compound; read-out: Percent inhibition of acetyltransferase, Moz
T1 construct: made in house
Procedure: PCAF reactions were performed in 100 mM HEPES, pH 7.9, and contained 200 μM TPP, 5 mM MgCl2, 1 mM DTT, 50 mM NaCl, 0.05 mg/mL BSA, 200 μM NAD, 2.4 mM α-KG, 30 μM acetyl-CoA, 0.037 units α-KGDH, 3.3% DMSO, and 10 μM inhibitor. Reactions took place at 30° C. Reactions were initiated by addition of 10 nM PCAF and were followed at 340 nm over the linear portion of the curve below 10% turnover. AANAT reactions were performed in 100 mM NH4 OAc, pH 6.8, and contained 200 μM TPP, 5 mM MgCl2, 1 mM DTT, 50 mM NaCl, 0.05 mg/mL BSA, 200 μM NAD, 2.4 mM α-KG, 200 μM AcCoA, 0.1 units α-KGDH, 3.3% DMSO, and 10 μM inhibitor. Reactions took place at 25° C. Reactions were initiated with addition of 65 nM AANAT, and followed at 340 nm, as above. Percent inhibition values were compared to those with p300, which were repeated using the protocol given above. […]
HAT assays with yeast GCN5, SAS complex, MOZ, and Rtt109/Vps75 complex used the direct radioactive assay described above. […] The amount of enzyme used in each assay was estimated by comparing Coomassie Blue staining of samples with bovine serum albumin standards, analyzed by SDS-PAGE. […] The rate of ^14C-incorporation into histone H3 was quantified by autoradiography. […]

[2] = reaction with beta-mercaptoethanol (absorbance spectrum); assay type: physicochemical; settings: 10 mM beta-mercaptoethanol, up to one hour
[3] = system: three melanoma and three non-small cell lung cancer lines; assay: 3H-thymidine incorporation, melanoma and lung cancer lines; assay type: cell-based, human; settings: 24 hours; C646 10 μM, Lys-CoA-Tat 25 μM
Excerpt: The following cell lines were used: WM35 (melanoma), WM983A (melanoma), 1205Lu (melanoma), H23 (NSCLC), H838 (NSCLC), and H1395 (NSCLC). Melanoma cells were maintained in Dulbecco's Modified Eagle Medium. NSCLCs were maintained in RPMI Medium 1640. Both types of media were supplemented with 10% fetal bovine serum (FBS), penicillin-streptomycin, and L-glutamine. Media, pen-strep, and L-glutamine were purchased from Invitrogen. FBS was purchased from Gemini Bio-Products (#100106). […] Compound stocks (10-20 mM in anhydrous DMSO) were directly added to culture media at desired concentrations. DMSO concentration was kept constant at 0.2% between different treatment conditions. Cells were seeded in 96-well plates at ˜5000 cells per well on average, depending on each cell line's doubling time. After attachment, cells were treated with p300 inhibitors, control compounds, or DMSO for 24 h. After treatment, ^3H-thymidine (1 mCi/ml stock) was added to media at 10 μCi/ml final concentration. Cells were incubated for an additional 5 hours, then trypsinized and collected onto a filter mat using a Cell Harvester (PerkinElmer). Radioactivity was measured with a MicroBeta plate reader (PerkinElmer). Each sample was tested in triplicate.

[4] = system: global histone H3 acetylation in WM983A cells; assay: histone H3 acetylation Western blot in WM983A; assay type: cell-based, human; settings: 6 hours, increasing doses
Procedure: Cells were treated with each compound for 24 hours, and proliferation was measured via ^3H-thymidine incorporation. […] Nuclear lysates were subjected to Western blot analysis for acetylated H3 (Upstate 06-599). Total H3 (Abeam ab1791) was blotted as a loading control.

NIH3T3 cells = assay: NIH3T3 cell proliferation; assay type: cell-based
Procedure: Cells were treated for 24 hours and proliferation was measured via ^3H-thymidine incorporation pre- and post-treatment. Data for each cell line were normalized to ^3H counts measured pre-treatment. […] Ac-DDDD-Tat is a control peptide for Lys-CoA-Tat. WM35, WM983A, and 1205Lu are melanoma cell lines representing three stages of cancer progression: radial, vertical, and metastatic, respectively.

[5] = system: melanoma cell lines from varying stages of progression; assay: 3H-thymidine incorporation, melanoma lines of varying stages; assay type: cell-based; settings: 24 hours
Procedure: Proliferation was measured via ^3H-thymidine incorporation.

T1 sequence (Q92794 497-780 limits assumed): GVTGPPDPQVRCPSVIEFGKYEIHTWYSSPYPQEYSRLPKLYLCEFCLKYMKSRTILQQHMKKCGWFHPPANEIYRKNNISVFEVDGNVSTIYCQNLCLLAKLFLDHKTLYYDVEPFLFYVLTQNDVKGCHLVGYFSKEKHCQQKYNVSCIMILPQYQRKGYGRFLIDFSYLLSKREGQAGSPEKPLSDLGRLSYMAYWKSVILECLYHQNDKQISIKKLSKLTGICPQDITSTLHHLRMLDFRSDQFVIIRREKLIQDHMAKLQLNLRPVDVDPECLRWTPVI

inhibition at 10 µM [1]: < 10% | reaction with thiol (adduct formation) [2]: no evidence of reaction
Compound: CC1=NN(c2ccc(C(=O)O)cc2)C(=O)C1=Cc1ccc(-c2cc(C)c(C)cc2[N+](=O)[O-])o1 [Compound C646, 4-(4,5-dihydro-3-methyl-4-((5-(4,5-dimethyl-2-nitrophenyl)furan-2-yl)methylene)-5-oxopyrazol-1-yl)benzoic acid]
3H-thymidine incorporation [3]: capable of reducing ^3H-thymidine incorporation in several of these human cancer lines | global histone H3 acetylation [4]: dose-dependent reduction | effect on cell proliferation (NIH3T3 cells): does not have a significant inhibitory effect | 3H-thymidine incorporation [5]: reduced ^3H-thymidine incorporation
